From PubChem BioAssay AID1508591

Details: rat; liver microsomes; pH 7.4; 15.0 min; 1.0 µM

half-life [min]	SMILES
> 30	Cc1cc(C)nc(NC(=S)N2CCN(c3cc(C(F)(F)F)nc4ccccc34)CC2)c1
> 30	O=C([C@@H]1CCCN(c2ccc3[nH]c(C4(n5cc(Cl)cn5)CC4)nc3n2)C1)N1CCCC1
19	O=C(Nc1nc(-c2ccccc2)cs1)c1ccncc1NS(=O)(=O)c1ccc(F)cc1Cl
1.88	CCN(CCO)CCCOc1ccc2c(Nc3cc(CC(=O)Nc4cccc(F)c4)[nH]n3)ncnc2c1
3.7	Oc1ccc(CNc2ccccc2F)c2cccnc12
23.1	CCCOC(c1cc2nccc(C(=O)O)c2[nH]1)c1ccccc1Cl (stereo not drawn)
13.5	O=C1CCCC2=C1C(c1[nH]ncc1Cl)N=C(Nc1nc3ccccc3o1)N2 (stereo not drawn)
1.6	Cc1cccc(-n2cnc3cc(C(=O)N4CCCC(C)(C)C4)ccc32)c1
> 30	C[C@@]1(c2ncncc2F)NC(=O)c2cc(-c3cn[nH]c3)ccc21
1.6	Cc1ccc(S(=O)(=O)Nc2ccccc2CNc2nc(-c3ccccc3)cs2)cc1
1.98	Cc1ccccc1N(C)C1CN([S+](=O)([O-])c2cccc(C(F)(F)F)c2)C1
3.5	Cc1ccc(S(=O)(=O)Nc2ccccc2C(=O)Nc2ncc(-c3ccccc3)o2)cc1
> 30	Cc1cc(NS(=O)(=O)c2ccc(NC(=O)Cc3ccc(F)c(Cl)c3)cc2)no1
26	COc1nccc(-c2nc(Nc3ccc(F)c(F)c3)c3ccccc3n2)c1OC
> 30	CN(c1ncccc1CNc1nc(Nc2ccc3c(c2)CC(=O)N3)ncc1C(F)(F)F)S(C)(=O)=O
1.35	COc1cccc(CNCCSc2nnnn2C)c1OCc1ccc(Cl)cc1Cl
4.26	COc1cccc2nc(-c3cccs3)nc(NN3C(=O)C=C(C)C3=O)c12

SMILES	half-life [min]
CN1CCc2cc3c(cc2C1)OCO3	1
